One assay relates to T. mentagrophytes. The assay is described as follows: Formulations applied to artificial nail (IMS VITRO-NAILS), zone of inhibition. The class given is cell-based, Trichophyton mentagrophytes. The text has this: Each test formulation (50 microliters) was pipetted onto sterile ½ inch paper disks and was allowed to air dry. Spore suspensions of Trichophyton mentagrophytes and Trichophyton rubrum, were made using standard microbiological techniques. The resulting suspensions contained approximately 10,000,000 spores per milliliter. Sterile swabs were used to distribute the spore suspensions over the surface of Potato Dextrose Agar plates and one sample disk was placed in the center of each plate. As an additional test, a synthetic nail substrate, IMS VITRO-NAILS, was used to simulate permeation of the active through a human nail. This material is reported to have the wetting properties, thickness and flexibility of human nails. This experiment was conducted in the same manner as first experiment above, except that the formulations were pipetted onto ¾-1 inch squares of VITRO-NAILS and either allowed to dry for 2 days before testing or place directly on the inoculated agar plates while wet.

The test system of assay [1] is Trichophyton mentagrophytes. The assay is described as follows: Microbiology efficacy test, formulations applied to paper disks, zone of inhibition. In kind it is cell-based. The settings on record: T. mentagrophytes; 50 microliters on 1/2 inch paper disk, air dried; Potato Dextrose Agar; average results. The text has this:
(§1) Each test formulation (50 microliters) was pipetted onto sterile ½ inch paper disks and was allowed to air dry. Spore suspensions of Trichophyton mentagrophytes and Trichophyton rubrum, were made using standard microbiological techniques. The resulting suspensions contained approximately 10,000,000 spores per milliliter. Sterile swabs were used to distribute the spore suspensions over the surface of Potato Dextrose Agar plates and one sample disk was placed in the center of each plate.

The subject of another assay is Trichophyton rubrum. Described as above. In kind it is cell-based. The following applies: T. rubrum; 50 microliters on 1/2 inch paper disk, air dried; Potato Dextrose Agar; average results.
From the text: as §1

From patent US20090298805A1, “TOPICAL PYRITHIONE COMPOSITIONS AND METHODS FOR TREATMENT OF NAIL FUNGUS” (priority 2008, published 2009) come the findings set out here.

`Cc1cc(C2CCCCC2)n(O)c(=O)c1` [Ciclopirox]: the “Zone of Inhibition, Tested Dry” value with T. mentagrophytes (allowed to dry for 2 days before testing) worked out at 8.75 mm. In the assay with T. mentagrophytes (placed directly on inoculated agar plates while wet), the “Zone of Inhibition, Tested Wet” value came out at 9 mm. For the same compound, the “Zone of Inhibition” value worked out at 16.0 mm in assay [1] and 19.0 mm with Trichophyton rubrum.
